From patent publication US7384757B2 (Bristol-Myers Squibb Company, priority 2004, dated 2008)

Legend:
ACC and FAS = test: ACC/FAS coupled SPA, effect of DMSO and purification reagents; assay type: biochemical, rat; conditions: for effect on the enzyme reaction: ACC/FAS coupled SPA, FIG. 12
Protocol: (§1) The [^3H]-acetyl CoA mix in the final reaction was 20 μM with 0.25 μCi per assay (specific activity of 250 μCi/μmol).
Compound Dilution: Compounds were dissolved in 100% DMSO to obtain 10 mM stock solution. A serial dilution of the compounds in 100% DMSO was made first. Then the compounds were diluted 1:33.3 in buffer to obtain 10× compound solution in 3% DMSO. From this intermediate dilution, a further 10× dilution was made in the assay, resulting 0.3% final DMSO concentration in the assay.
For screening in drug discovery, compounds are routinely dissolved in 100% DMSO and then further diluted to 1% or lower DMSO in the final assay. The effect of DMSO on the ACC/FAS coupled assay was studied. […] At 1% DMSO, the total signal decreased 25% and the S/B was reduced from 15 to 12 with a greater inhibition observed at higher concentrations. Therefore, it may be desirable to keep the final DMSO concentrations in the assay below 0.3%, and not to exceed 1%.
Buffers containing sucrose, glycerol and polyethylene glycol (PEG) were used in the purification of ACC and FAS. In addition, the purified enzymes were stored in buffers containing 20% glycerol to increase long-term stability. In view of this, the effects of glycerol, sucrose and PEG on the enzyme activities were studied with the ACC/FAS coupled SPA.

[1] = molecular target: T1, rat acetyl CoA carboxylase 1 (rACC) (Rattus norvegicus, UniProt P11497); test: ACC/FAS coupled scintillation proximity assay, reagent titrations (Km, Kact); assay type: biochemical; conditions: other reagents saturating, acetyl CoA 20 μM, 37° C.
T1 construct: from tissue; host or cells: rat liver (rats fasted 36 h, then fed a fat-free carbohydrate diet for 48 h)
Protocol: The sequence of addition of the solution mixtures into each well of a custom 384-well phospholipid coated FLASHPLATE™ was as follows:
Step 1: Add 35 μl of enzyme mix in assay buffer.
Step 2: Add 5 μl of 3% DMSO or 10× compound in 3% DMSO.
Step 3: Incubate at room temperature for 10 min.
Step 5: Incubate the plate at 37° C. for 2 hours.
Step 6: Count the plate in a TOPCOUNT™ NXT for 2 min/well.

[2] = molecular target: T2, rat fatty acid synthase (rFAS) (Rattus norvegicus, UniProt P12785); test: ACC/FAS coupled SPA, dependence of FAS activity on NADPH; assay type: biochemical; conditions: FAS cofactor, varied in the ACC/FAS coupled assay
T2 construct: from tissue
T2 sequence (P12785 whole entry): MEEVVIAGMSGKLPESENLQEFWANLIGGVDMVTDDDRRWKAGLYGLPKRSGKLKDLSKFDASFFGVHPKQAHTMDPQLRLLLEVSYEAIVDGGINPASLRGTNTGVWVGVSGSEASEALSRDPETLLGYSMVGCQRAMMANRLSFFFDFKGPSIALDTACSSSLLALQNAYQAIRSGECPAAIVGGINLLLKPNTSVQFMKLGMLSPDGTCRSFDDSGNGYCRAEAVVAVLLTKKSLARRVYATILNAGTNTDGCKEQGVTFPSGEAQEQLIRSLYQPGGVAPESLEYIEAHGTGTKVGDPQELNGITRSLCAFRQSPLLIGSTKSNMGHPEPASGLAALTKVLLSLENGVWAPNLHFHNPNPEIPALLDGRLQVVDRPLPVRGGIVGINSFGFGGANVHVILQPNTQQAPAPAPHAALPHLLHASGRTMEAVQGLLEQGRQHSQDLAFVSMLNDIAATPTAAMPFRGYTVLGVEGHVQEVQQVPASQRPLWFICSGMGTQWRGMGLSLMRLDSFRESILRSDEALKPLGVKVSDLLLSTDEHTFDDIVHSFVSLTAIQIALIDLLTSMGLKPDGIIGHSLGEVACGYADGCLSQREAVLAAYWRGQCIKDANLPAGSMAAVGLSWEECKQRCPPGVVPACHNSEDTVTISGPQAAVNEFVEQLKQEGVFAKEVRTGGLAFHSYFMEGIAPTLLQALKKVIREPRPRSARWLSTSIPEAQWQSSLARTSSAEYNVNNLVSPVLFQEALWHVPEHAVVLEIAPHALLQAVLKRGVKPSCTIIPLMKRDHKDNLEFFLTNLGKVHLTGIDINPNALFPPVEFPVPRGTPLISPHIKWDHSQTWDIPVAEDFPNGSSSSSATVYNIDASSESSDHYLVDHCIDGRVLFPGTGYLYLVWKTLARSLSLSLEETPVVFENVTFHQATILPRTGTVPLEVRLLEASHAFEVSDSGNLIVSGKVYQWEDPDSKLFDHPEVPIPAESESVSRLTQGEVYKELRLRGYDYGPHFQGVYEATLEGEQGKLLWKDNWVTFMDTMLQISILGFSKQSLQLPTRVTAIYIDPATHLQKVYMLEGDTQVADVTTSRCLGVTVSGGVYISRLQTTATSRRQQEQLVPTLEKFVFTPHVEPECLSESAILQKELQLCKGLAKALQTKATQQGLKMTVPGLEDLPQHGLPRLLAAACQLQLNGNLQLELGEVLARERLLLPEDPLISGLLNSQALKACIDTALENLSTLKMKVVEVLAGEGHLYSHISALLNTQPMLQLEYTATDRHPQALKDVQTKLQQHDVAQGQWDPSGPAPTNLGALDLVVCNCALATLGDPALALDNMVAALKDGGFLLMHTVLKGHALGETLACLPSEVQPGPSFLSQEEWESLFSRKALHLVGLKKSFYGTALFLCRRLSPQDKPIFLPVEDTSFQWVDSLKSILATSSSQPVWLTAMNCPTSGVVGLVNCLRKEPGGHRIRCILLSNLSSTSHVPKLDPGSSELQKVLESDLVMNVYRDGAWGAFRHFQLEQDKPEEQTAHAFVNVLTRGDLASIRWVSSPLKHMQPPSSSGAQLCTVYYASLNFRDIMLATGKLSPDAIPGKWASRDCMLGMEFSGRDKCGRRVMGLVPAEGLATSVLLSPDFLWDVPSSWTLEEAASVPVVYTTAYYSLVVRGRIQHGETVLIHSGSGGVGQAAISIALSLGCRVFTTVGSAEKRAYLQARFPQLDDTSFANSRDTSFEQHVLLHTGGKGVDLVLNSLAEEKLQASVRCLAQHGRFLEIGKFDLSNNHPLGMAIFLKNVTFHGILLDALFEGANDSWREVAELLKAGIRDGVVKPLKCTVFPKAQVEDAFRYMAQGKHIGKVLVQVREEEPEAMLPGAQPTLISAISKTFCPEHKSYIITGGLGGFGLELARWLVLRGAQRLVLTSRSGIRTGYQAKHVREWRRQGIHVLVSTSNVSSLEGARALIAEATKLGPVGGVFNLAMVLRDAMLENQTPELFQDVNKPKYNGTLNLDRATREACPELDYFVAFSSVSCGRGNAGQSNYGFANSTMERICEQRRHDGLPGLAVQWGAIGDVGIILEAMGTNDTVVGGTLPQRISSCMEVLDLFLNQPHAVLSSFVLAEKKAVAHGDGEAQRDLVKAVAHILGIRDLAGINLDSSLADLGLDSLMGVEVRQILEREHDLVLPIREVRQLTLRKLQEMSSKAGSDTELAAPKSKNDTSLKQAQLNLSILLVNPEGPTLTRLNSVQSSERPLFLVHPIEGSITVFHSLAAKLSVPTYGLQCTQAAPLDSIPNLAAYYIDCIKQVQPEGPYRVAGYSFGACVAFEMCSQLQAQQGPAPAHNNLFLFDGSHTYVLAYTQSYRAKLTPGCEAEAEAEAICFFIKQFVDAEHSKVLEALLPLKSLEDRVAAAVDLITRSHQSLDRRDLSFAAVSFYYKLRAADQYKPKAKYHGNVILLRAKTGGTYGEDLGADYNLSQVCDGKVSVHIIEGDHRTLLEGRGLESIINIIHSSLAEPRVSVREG
Protocol: as §1
The Km values for these FAS substrates can be determined independently. In the present study, the dependence of FAS activity on NADPH was determined by varying the cofactor concentration (FIG. 10). […] In this study, NADPH was maintained at saturating concentration of 100 μM.

[3] = test system: CC(=O)SCCNC(=O)CCNC(=O)[C@H](O)C(C)(C)COP(=O)(O)OP(=O)(O)OC[C@H]1O[C@@H](n2cnc3c(N)ncnc32)[C@H](O)[C@@H]1OP(=O)(O)O; test: purified protein, by the assay type; conditions: other: from saturation curve, other reagents saturating, 37° C., pH 7.6

Compound: C[S+](C)[O-] [DMSO]
- effect on the activity of FAS or ACC (ACC and FAS; DMSO concentrations up to 0.3%): no significant effect
- decrease of total signal (ACC and FAS; at 1% DMSO): 25%

Compound: [Cl-].[Cl-].[Mg+2] [MgCl2]
- Kact (half-maximal saturation value) [1]: 6.3 mM

Compound: NC(=O)C1=CN([C@@H]2O[C@H](COP(=O)(O)OP(=O)(O)OC[C@H]3O[C@@H](n4cnc5c(N)ncnc54)[C@H](OP(=O)(O)O)[C@@H]3O)[C@@H](O)[C@H]2O)C=CC1 [NADPH]
- Km [2]: 28 µM

Compound: O=C([O-])O.[Na+] [NaHCO3]
- Km ([1]; from saturation curve): 1700 µM

Compound: OCC(O)CO [glycerol]
- effect on the enzyme reaction (ACC and FAS): none of these reagents have any significant effect

Compound: OC[C@H]1O[C@@](CO)(O[C@H]2O[C@H](CO)[C@@H](O)[C@H](O)[C@H]2O)[C@@H](O)[C@@H]1O [sucrose]
- effect on the enzyme reaction (ACC and FAS): none of these reagents have any significant effect

Compound: rat acetyl CoA carboxylase 1 (rACC) (Rattus norvegicus)
- Km [3]: 47 µM
